Like-named read-outs stand apart in the source and are kept apart here.
How the values were obtained:
HUVECs = test: High-content imaging cytotoxicity in HUVECs, 24 h; assay type: cell-based, human; settings: Homo sapiens, HUVEC, 24 h, HUVECs; for viability at 0.01 µM / activity at 0.01 µM / viability at 0.1 µM / activity at 0.1 µM / viability at 1 µM / activity at 1 µM / viability at 10 µM / activity at 10 µM / viability at 100 µM / activity at 100 µM: 0.00 µM = 100.00; for viability at 0.1 µM / activity at 0.1 µM: 0.10 µM; for minimal effective concentration: top concentration 100.00 µM
Method in brief: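 HUVECs (passages 1–5) grown to monolayer over 3–5 d, then exposed 24 h at 37°C, 5% CO2; stained with Hoechst 33342, MitoTracker Orange and calcein AM and imaged at 10×. Readouts normalized to 0.5% DMSO vehicle, four-parameter logistic fit; POD at one-SD cutoff, 100μM assigned when no response.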

[1] = system: iCell endothelial cells (human iPSC-derived ECs); test: Tube formation (tubulogenesis) assay in iCell endothelial cells, 18 h; assay type: cell-based; settings: Homo sapiens, Endothelial cell, iPSC-EC tube formation, 18 hr; for activity at 0.1 µM: 0.10 µM; for minimal effective concentration: top concentration 100.00 µM
Method in brief: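 iCell ECs (passages 1–5) seeded 7,500 cells/well on reduced-growth-factor Geltrex in starvation medium, exposed overnight at 37°C to compounds in triplicate concentration–response (0.5% DMSO vehicle). Calcein AM staining, 4× imaging, angiogenesis image analysis; readouts normalized to vehicle, four-parameter logistic fit, POD at 1 SD of vehicle; 100 μM assigned NOAEL if no response.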

[2] = 24 hr, read-out: huvec.cyto.24hr
[3] = 24 hr, read-out: huvec.mito.24hr
[4] = 24 hr, read-out: huvec.mitoint.24hr
[5] = 24 hr, read-out: huvec.nma.24hr
[6] = 24 hrs, read-out: huvec.tc.24hrs
[7] = 0.00 µM control = 100.00, read-out: endo.mtl.18hr
[8] = 0.00 µM control = 100.00, read-out: endo.tlps.18hr
[9] = 0.00 µM control = 100.00, read-out: endo.tta.18hr
[10] = 0.00 µM control = 100.00, read-out: endo.ttl.18hr

Compound: Clc1cccc(-c2cccc(Cl)c2)c1 [PCB11]
- viability at 0.01 µM (HUVECs; [2]): 91.9%
- activity at 0.01 µM (HUVECs; [3]): 90.9%
- activity at 0.01 µM (HUVECs; [4]): 90.3%
- activity at 0.01 µM (HUVECs; [5]): 99.1%
- viability at 0.1 µM (HUVECs; [2]): 99.2%
- activity at 0.1 µM (HUVECs; [3]): 97.8%
- activity at 0.1 µM (HUVECs; [4]): 99.8%
- activity at 0.1 µM (HUVECs; [5]): 99.1%
- viability at 1 µM (HUVECs; [2]): 96.6%
- activity at 1 µM (HUVECs; [3]): 96.2%
- activity at 1 µM (HUVECs; [4]): 95.2%
- activity at 1 µM (HUVECs; [5]): 98.1%
- viability at 10 µM (HUVECs; [2]): 95%
- activity at 10 µM (HUVECs; [3]): 93.9%
- activity at 10 µM (HUVECs; [4]): 89.1%
- activity at 10 µM (HUVECs; [5]): 96.6%
- viability at 100 µM (HUVECs; [2]): 44.7%
- activity at 100 µM (HUVECs; [3]): 22.1%
- activity at 100 µM (HUVECs; [4]): 15.7%
- activity at 100 µM (HUVECs; [5]): 54.9%
- minimal effective concentration (HUVECs; 24 hr, read-out: huvec.cyto.24hr POD): 11.2 µM
- minimal effective concentration (HUVECs; 24 hr, read-out: huvec.mito.24hr POD): 9.68 µM
- minimal effective concentration (HUVECs; 24 hr, read-out: huvec.mitoint.24hr POD): 7.62 µM
- minimal effective concentration (HUVECs; 24 hr, read-out: huvec.nma.24hr POD): 9.3 µM
- viability at 0.01 µM (HUVECs; [6]): 91.9%
- viability at 0.1 µM (HUVECs; [6]): 99.2%
- viability at 1 µM (HUVECs; [6]): 96.6%
- viability at 10 µM (HUVECs; [6]): 95%
- viability at 100 µM (HUVECs; [6]): 44.9%
- minimal effective concentration (HUVECs; 24 hrs, read-out: huvec.tc.24hrs POD): 11.2 µM
- activity at 0.01 µM [1, 7]: 98.5%
- activity at 0.01 µM [1, 8]: 118%
- activity at 0.01 µM [1, 9]: 148%
- activity at 0.01 µM [1, 10]: 143%
- activity at 0.1 µM [1, 7]: 102%
- activity at 0.1 µM [1, 8]: 117%
- activity at 0.1 µM [1, 9]: 118%
- activity at 0.1 µM [1, 10]: 116%
- activity at 1 µM [1, 7]: 105%
- activity at 1 µM [1, 8]: 125%
- activity at 1 µM [1, 9]: 132%
- activity at 1 µM [1, 10]: 126%
- activity at 10 µM [1, 7]: 91.6%
- activity at 10 µM [1, 8]: 140%
- activity at 10 µM [1, 9]: 80.8%
- activity at 10 µM [1, 10]: 80.3%
- activity at 100 µM [1, 7]: 105%
- activity at 100 µM [1, 8]: 114%
- activity at 100 µM [1, 9]: 150%
- activity at 100 µM [1, 10]: 150%
- minimal effective concentration ([1]; read-out: endo.mtl.18hr POD): 100 µM
- minimal effective concentration ([1]; read-out: endo.tlps.18hr POD): 100 µM
- minimal effective concentration ([1]; read-out: endo.tta.18hr POD): 100 µM
- minimal effective concentration ([1]; read-out: endo.ttl.18hr POD): 100 µM

From PMC7377239, “Cardiovascular Effects of Polychlorinated Biphenyls and Their Major Metabolites” (Environmental Health Perspectives, 2020)
